The nature of data set [1]: Measurement of LogP values by HPLC on reversed phase columns (EEC directive 79/831 Annex V.A8). Type of data set: physicochemical. As to conditions: acidic range, 0.1% formic acid in water and acetonitrile as eluent; for chromatographic logP: read-out: logP (HCOOH)[a].
Data set [2] concerns Cooperia curticei. The experiment in a line: Cooperia curticei assay (COOPCU), larval mortality. Type of data set: cell-based. As to conditions: Cooperia curticei, 120 h, after 5 days, read-out: activity (percentage of larval mortality); for mortality at 20 ppm: application rate 20 ppm. As for the experimental part:
Cooperia Curticei—Assay (COOPCU)
(§1) Solvent: dimethyl sulfoxide
(§2) To produce a suitable preparation, 10 mg of active compound are dissolved in 0.5 ml solvent, and the concentrate is diluted with “Ringer's solution” to the desired concentration.
Approximately 40 nematode larvae (Cooperia curticei) are transferred into a test tube containing the compound solution.
After 5 days percentage of larval mortality is recorded. 100% efficacy means all larvae are killed; 0% efficacy means no larvae are killed.

The subject of data set [3] is Haemonchus contortus. The data set can be described thus: Haemonchus contortus assay (HAEMCO), larval mortality. Type of data set: cell-based. The settings on record: Haemonchus contortus, 120 h, after 5 days, read-out: activity (percentage of larval mortality); for mortality at 20 ppm: application rate 20 ppm. As for the experimental part:
Haemonchus Contortus—Assay (HAEMCO)
as §1, §2
Approximately 40 larvae of the red stomach worm (Haemonchus contortus) are transferred into a test tube containing compound solution.
After 5 days percentage of larval mortality are recorded. 100% efficacy means all larvae are killed, 0% efficacy means no larvae are killed.

For data set [4], the system named is Nippostrongylus brasiliensis. The data set can be described thus: Nippostrongylus brasiliensis assay (NIPOBR), acetylcholine esterase readout. Type of data set: cell-based. As to conditions: read-out: activity (reduction of AChE compared to negative control). As for the experimental part: Nippostrongylus Brasiliensis—Assay (NIPOBR)
Adult Nippostrongylus brasiliensis were washed with saline buffer containing 100 U/ml penicillin, 0.1 mg/ml streptomycin and 2.5 μg/ml amphotericin B. Test compounds were dissolved in DMSO and worms were incubated in medium in a final concentration of 10 μg/ml (10 ppm) respectively 1 μg/ml (1 ppm). An aliquot of the medium was used to determine the acetylcholine esterase activity in comparison to a negative control. The principle of measuring acetylcholine esterase as readout for anthelmintic activity was described in Rapson et al (1986) and Rapson et al (1987).

Data set [5] has as its system Meloidogyne incognita. The experiment in a line: Meloidogyne incognita assay (MELGIN), gall formation on salad seedlings. Type of data set: in vivo. As to conditions: application rate 20 ppm, after 14 days. As for the experimental part:
Meloidogyne Incognita—Assay (MELGIN)
Solvent: 125.0 parts by weight of acetone
To produce a suitable preparation, 1 part by weight of active compound is mixed with the stated amount of solvent, and the concentrate is diluted with water to the desired concentration.
Vessels are filled with sand, a solution of the active ingredient, a suspension containing eggs and larvae of the southern root-knot nematode (Meloidogyne incognita) and salad seeds. The salad seeds germinate and the seedlings grow. Galls develop in the roots.
After 14 days the nematicidal activity is determined on the basis of the percentage of gall formation. 100% means no galls were found and 0% means the number of galls found on the roots of the treated plants was equal to that in untreated control plants.

This note sets out measurements from patent US20170320848A1, “COMPOUNDS FOR USE IN ANTHELMINTHIC TREATMENT” (Bayer Animal Health GMBH, priority 2014, published 2017).

Where two headings read alike, the source gives them in different places.

What is called mortality is the percentage killed. Consider `O=C(NCC(F)(F)c1ccc(-c2ccc(Cl)cc2)cc1Cl)c1ccccc1C(F)(F)F` [Example 1], for which, in data set [1], the chromatographic logP was determined as 4.58. In addition, the mortality at 20 ppm in data set [2] and in data set [3] was 100% in each case. Besides, the inhibition at 10 µg/mL in data set [4] (10 μg/ml, adult worms) is no less than 75%.

For `O=C(NCC(F)(F)c1ccc(-c2ccccc2)cc1Cl)c1ccccc1C(F)(F)F` [Example 2], the chromatographic logP in data set [1] was found to be 4.05. Further, the mortality at 20 ppm in data set [2] and in data set [3] was 100% throughout. Besides, the inhibition at 10 µg/mL in data set [4] (10 μg/ml, adult worms) is no less than 75%.

Turning to `O=C(NCC(F)(F)c1ccc(-c2ccc(F)cc2)cc1Cl)c1ccccc1C(F)(F)F` [Example 3, N-[2-[2-chloro-4-(4-fluorophenyl)phenyl]-2,2-difluoro-ethyl]-2-(trifluoromethyl)benzamide], in data set [1], the “logP (HCOOH)[a]” value is recorded as 4.10 and the chromatographic logP was 4.14. Further, the mortality at 20 ppm in data set [2] turned out to be 100%. Besides, the mortality at 20 ppm in data set [3] is 100%. The inhibition at 10 µg/mL in data set [4] (10 μg/ml, adult worms) was no less than 75%.

With `O=C(NCC(F)(F)c1ccc(-c2ccc(Cl)cc2)cc1Cl)c1cccnc1C(F)(F)F` [Example 4], the chromatographic logP in data set [1] (reversed phase HPLC columns) turned out to be 4.14. Also, the mortality at 4 ppm in data set [2] (application rate 4 ppm) is 100%; in data set [3] (application rate 4 ppm), 90%.

Regarding `O=C(NCC(F)(F)c1ccc(-c2ccc(Cl)cc2)cc1F)c1ccccc1C(F)(F)F` [Example 5], the mortality at 20 ppm turned out to be 100% in data set [2] and 80% in data set [3]. In addition, the inhibition at 10 µg/mL in data set [4] is no less than 75%.

Turning to `O=C(NCC(F)(F)c1ccc(-c2ccc(F)cc2)cc1F)c1ccccc1C(F)(F)F` [Example 7, N-(2-(3,4′-Difluoro-[1,1′-biphenyl]-4-yl)-2,2-difluoroethyl)-2-(trifluoromethyl)benzamide], the mortality at 20 ppm in data set [2] is 100%; in data set [3] it was 90%. Also, the inhibition at 10 µg/mL in data set [4] (10 μg/ml, adult worms) is no less than 75%.

Consider `O=C(NCC(F)(F)c1ccc(-c2ccc(F)cc2)cc1Cl)c1cccnc1C(F)(F)F` [Example 9], for which the chromatographic logP in data set [1] (reversed phase HPLC columns) was 3.68. The mortality at 20 ppm in data set [2] and in data set [3] was 100% in each case. Besides, the “nematicidal activity (percentage of gall formation)” value in data set [5] amounted to 100%.

Regarding `O=C(NCC(F)(F)c1ccc(-c2ccc(F)cc2)cc1C(F)(F)F)c1ccccc1C(F)(F)F` [Example 12, N-(2,2-Difluoro-2-(4′-fluoro-3-(trifluoromethyl)-[1,1′-biphenyl]-4-yl)ethyl)-2-(trifluoromethyl)benzamide], the mortality at 20 ppm in data set [2] and in data set [3] was 100% throughout. In addition, the inhibition at 10 µg/mL in data set [4] (10 μg/ml, adult worms) is no less than 75%.

For the compound `O=C(NCC(F)(F)c1ccc(-c2ccc(Cl)cc2)cc1C(F)(F)F)c1ccccc1C(F)(F)F` [Example 13], the mortality at 20 ppm in data set [2] was 100%; in data set [3], 90%. For the same compound, the inhibition at 10 µg/mL in data set [4] (10 μg/ml, adult worms) was no less than 75%.

On to `O=C(NCC(F)(F)c1c(F)cc(-c2ccc(F)cc2)cc1F)c1ccccc1C(F)(F)F` [Example 16], for which the chromatographic logP in data set [1] (reversed phase HPLC columns) was 3.95. Besides, the mortality at 20 ppm in data set [2] and in data set [3] was 100% throughout.

With `O=C(NCC(F)(F)c1ccc(-c2ccc(F)cc2)cc1C(F)(F)F)c1cccnc1C(F)(F)F` [Example 17, N-(2,2-Difluoro-2-(4′-fluoro-3-(trifluoromethyl)-[1,1′-biphenyl]-4-yl)ethyl)-2-(trifluoromethyl)-nicotinamide], the mortality at 20 ppm in data set [2] and in data set [3] was 100% in each case. The inhibition at 10 µg/mL in data set [4] was no less than 75%. In data set [5], the “nematicidal activity (percentage of gall formation)” value stood at 90%.

Consider `O=C(NCC(F)(F)c1ccc(-c2ccc(Cl)cc2)cc1C(F)(F)F)c1cccnc1C(F)(F)F` [Example 18], for which the mortality at 20 ppm in data set [2] and in data set [3] was 100% in each case.

As to `O=C(NCC(F)(F)c1ccc(-c2ccc(F)cc2)cc1F)c1cccnc1C(F)(F)F` [Example 19], the mortality at 20 ppm in data set [2] and in data set [3] was 100% each time.

For `O=C(NCC(F)(F)c1ccc(-c2ccc(Cl)cc2)cc1F)c1cccnc1C(F)(F)F` [Example 20], the results for the mortality at 20 ppm in data set [2] and in data set [3] were 100% and 90%, respectively.

With `O=C(NCC(F)(F)c1ccc(-c2ccc(F)c(C(F)(F)F)c2)cc1Cl)c1ccccc1C(F)(F)F` [Example 21], the chromatographic logP in data set [1] was 4.55. Moreover, the mortality at 20 ppm in data set [2] amounted to 100%; in data set [3], 90%. Also, the inhibition at 10 µg/mL in data set [4] was no less than 75%.

Consider `O=C(NCC(F)(F)c1ccc(-c2ccc(C(F)(F)F)c(F)c2)cc1Cl)c1ccccc1C(F)(F)F` [Example 22], for which the chromatographic logP in data set [1] amounted to 4.62. Besides, the mortality at 20 ppm is 100% in data set [2] and 90% in data set [3]. Also, in data set [4], the inhibition at 10 µg/mL is no less than 75%.

As to `O=C(NCC(F)(F)c1ccc(-c2ccc(SC(F)(F)F)cc2)cc1Cl)c1ccccc1C(F)(F)F` [Example 23], the chromatographic logP in data set [1] is 4.98. Moreover, the mortality at 20 ppm in data set [2] and in data set [3] was 100% in each case. Besides, the inhibition at 10 µg/mL in data set [4] is no less than 75%.

As to `N#Cc1ccc(-c2ccc(C(F)(F)CNC(=O)c3ccccc3C(F)(F)F)c(Cl)c2)cc1F` [Example 25], the chromatographic logP in data set [1] was 3.77. Moreover, the mortality at 20 ppm in data set [2] and in data set [3] was 100% in each case. Besides, the inhibition at 10 µg/mL in data set [4] is no less than 75%. Further, the “nematicidal activity (percentage of gall formation)” value in data set [5] is on record as 100%.

As for `CSc1ccc(-c2ccc(C(F)(F)CNC(=O)c3ccccc3C(F)(F)F)c(Cl)c2)cc1` [Example 26], the chromatographic logP in data set [1] (reversed phase HPLC columns) came to 4.43. For the same compound, the mortality at 20 ppm in data set [2] and in data set [3] was 100% each time.

As to `N#Cc1ccc(-c2ccc(C(F)(F)CNC(=O)c3ccccc3C(F)(F)F)c(Cl)c2)cc1` [Example 27], in data set [1], the chromatographic logP was 3.62. Further, the mortality at 20 ppm in data set [2] and in data set [3] was 100% each time. Also, in data set [4], the inhibition at 10 µg/mL was no less than 75%. Also, in data set [5], the “nematicidal activity (percentage of gall formation)” value is reported as 100%.

As for `O=C(NCC(F)(F)c1ccc(-c2c(F)cccc2F)cc1Cl)c1ccccc1C(F)(F)F` [Example 31], the chromatographic logP in data set [1] (reversed phase HPLC columns) came to 3.99. Besides, the mortality at 20 ppm in data set [2] was 100%; in data set [3] it was 80%.

On to `O=C(NCC(F)(F)c1ccc(-c2cc(F)c(F)c(F)c2)cc1Cl)c1ccccc1C(F)(F)F` [Example 32], for which the chromatographic logP in data set [1] was determined as 4.44. The mortality at 20 ppm in data set [2] and in data set [3] was 100% in each case. For the same compound, the inhibition at 10 µg/mL in data set [4] was no less than 75%. Besides, the “nematicidal activity (percentage of gall formation)” value in data set [5] is given as 100%.

With `O=C(NCC(F)(F)c1ccc(-c2ccc(F)c(F)c2)cc1Cl)c1ccccc1C(F)(F)F` [Example 33], in data set [1], the chromatographic logP is 4.26. Further, the mortality at 20 ppm in data set [2] and in data set [3] was 100% each time. In data set [4], the inhibition at 10 µg/mL is no less than 75%.

Take `COc1cc(-c2ccc(C(F)(F)CNC(=O)c3ccccc3C(F)(F)F)c(Cl)c2)ccc1F` [Example 34]: the chromatographic logP in data set [1] (reversed phase HPLC columns) worked out at 4.09. Also, the mortality at 20 ppm in data set [2] and in data set [3] was 100% each time.

For the compound `O=C(NCC(F)(F)c1ccc(-c2cc(F)cc(F)c2)cc1Cl)c1ccccc1C(F)(F)F` [Example 35], the chromatographic logP in data set [1] came out at 4.3. Also, the mortality at 20 ppm in data set [2] and in data set [3] was 100% throughout. Also, the inhibition at 10 µg/mL in data set [4] is no less than 75%. Moreover, the “nematicidal activity (percentage of gall formation)” value in data set [5] is 100%.

Turning to `O=C(NCC(F)(F)c1ccc(-c2ccc(F)cc2F)cc1Cl)c1ccccc1C(F)(F)F` [Example 36], in data set [1], the chromatographic logP worked out at 4.22. For the same compound, the mortality at 20 ppm in data set [2] and in data set [3] was 100% in each case. Besides, the inhibition at 10 µg/mL in data set [4] is no less than 75%.

`COc1cc(-c2ccc(F)cc2)ccc1C(F)(F)CNC(=O)c1ccccc1C(F)(F)F` [Example 37]: in data set [1], the chromatographic logP was 3.89. Also, the mortality at 20 ppm in data set [2] came out at 100%; in data set [3], 90%. The inhibition at 10 µg/mL in data set [4] is no less than 75%.
